What was measured:
Assay in all cases: Experiment B1 glasshouse herbicide test, pre- and post-emergence, percentage damage
Assay type in all cases: in vivo
Settings in all cases: evaluated after 13 days
Setaria faberi (SETFA) = tested on: Setaria faberi (SETFA)
Procedure: (§1) Seeds of a variety of test species are sown in standard soil in pots (Lolium perenne (LOLPE), Solanum nigrum (SOLNI), Amaranthus retoflexus (AMARE), Setaria faberi (SETFA), Echinochloa crus-galli (ECHCG), Ipomoea hederacea (IPOHE)). After cultivation for one day (pre-emergence) or after 8 days cultivation (post-emergence) under controlled conditions in a glasshouse (at 24/16° C., day/night; 14 hours light; 65% humidity), the plants are sprayed with an aqueous spray solution derived from the formulation of the technical active ingredient in acetone/water (50:50) solution containing 0.5% Tween 20 (polyoxyethelyene sorbitan monolaurate, CAS RN 9005-64-5). […] The test plants are then grown in a glasshouse under controlled conditions in a glasshouse (at 24/16° C., day/night; 14 hours light; 65% humidity) and watered twice daily. After 13 days for pre and post-emergence, the test is evaluated for the percentage damage caused to the plant. The biological activities are shown in the following table on a five point scale (5=80-100%; 4=60-79%; 3=40-59%; 2=20-39%; 1=0-19%).

Solanum nigrum (SOLNI) = tested on: Solanum nigrum (SOLNI)
Procedure: as §1

[1] = tested on: Amaranthus retoflexus (AMARE)
Procedure: as §1

[2] = tested on: Echinochloa crus-galli (ECHCG)
Procedure: as §1

[3] = tested on: Ipomoea hederacea (IPOHE)
Procedure: as §1

Lolium perenne (LOLPE) = tested on: Lolium perenne (LOLPE)
Procedure: as §1

[4] = POST Application (post-emergence), applied at 250 g/ha
[5] = PRE Application (pre-emergence), applied at 250 g/ha
[6] = POST Application (post-emergence, after 8 days cultivation), 1000 g/h
[7] = PRE Application (pre-emergence, after cultivation for one day), 1000 g/h

| Compound | percentage damage caused to the plant, five point scale, SETFA (Setaria faberi (SETFA); [6]) | percentage damage caused to the plant, five point scale, SETFA (Setaria faberi (SETFA); [7]) | percentage damage caused to the plant, five point scale, SOLNI (Solanum nigrum (SOLNI); [6]) | percentage damage caused to the plant, five point scale, SOLNI (Solanum nigrum (SOLNI); [7]) | percentage damage caused to the plant, five point scale, AMARE [1, 6] | percentage damage caused to the plant, five point scale, AMARE [1, 7] | percentage damage caused to the plant, five point scale, ECHCG [2, 6] | percentage damage caused to the plant, five point scale, ECHCG [2, 7] | percentage damage caused to the plant, five point scale, IPOHE [3, 6] | percentage damage caused to the plant, five point scale, IPOHE [3, 7] | percentage damage caused to the plant, five point scale, LOLPE (Lolium perenne (LOLPE); [6]) | percentage damage caused to the plant, five point scale, LOLPE (Lolium perenne (LOLPE); [7]) | other results |
| --- | --- | --- | --- | --- | --- | --- | --- | --- | --- | --- | --- | --- | --- |
| Cn1nnnc1NC(=O)c1cc2cccnc2c(-c2ccccc2)c1S(C)(=O)=O [Compound 1.010, 7-METHYLSULFONYL-N-(1-METHYLTETRAZOL-5-YL)-8-PHENYL-QUINOLINE-6-CARBOXAMIDE] | – | – | – | – | – | – | – | – | – | – | – | – | percentage damage caused to the plant, five point scale, SETFA (Setaria faberi (SETFA); [4]): 5 (5=80-100%); percentage damage caused to the plant, five point scale, SETFA (Setaria faberi (SETFA); [5]): 2 (2=20-39%); percentage damage caused to the plant, five point scale, SOLNI (Solanum nigrum (SOLNI); [4]): 5 (5=80-100%); percentage damage caused to the plant, five point scale, SOLNI (Solanum nigrum (SOLNI); [5]): 5 (5=80-100%); percentage damage caused to the plant, five point scale, AMARE [1, 4]: 5 (5=80-100%); percentage damage caused to the plant, five point scale, AMARE [1, 5]: 5 (5=80-100%); percentage damage caused to the plant, five point scale, ECHCG [2, 4]: 5 (5=80-100%); percentage damage caused to the plant, five point scale, ECHCG [2, 5]: 5 (5=80-100%); percentage damage caused to the plant, five point scale, IPOHE [3, 4]: 5 (5=80-100%); percentage damage caused to the plant, five point scale, IPOHE [3, 5]: 4 (4=60-79%); percentage damage caused to the plant, five point scale, LOLPE (Lolium perenne (LOLPE); [4]): 4 (4=60-79%); percentage damage caused to the plant, five point scale, LOLPE (Lolium perenne (LOLPE); [5]): 2 (2=20-39%) |
| Cn1nnnc1NC(=O)c1cc2cccnc2c(-c2ccccc2)c1Cl [Compound 1.011, 7-chloro-N-(1-methyltetrazol-5-yl)-8-phenyl-quinoline-6-carboxamide] | 5 (5=80-100%) | 5 (5=80-100%) | 5 (5=80-100%) | 5 (5=80-100%) | 5 (5=80-100%) | 5 (5=80-100%) | 5 (5=80-100%) | 5 (5=80-100%) | 5 (5=80-100%) | 5 (5=80-100%) | 5 (5=80-100%) | 5 (5=80-100%) | – |
| Cc1ccc(-c2c(C(F)(F)F)c(C(=O)Nc3nnnn3C)cc3cccnc23)cc1 [Compound 1.017] | 5 (5=80-100%) | 5 (5=80-100%) | 5 (5=80-100%) | 5 (5=80-100%) | 5 (5=80-100%) | 5 (5=80-100%) | 5 (5=80-100%) | 5 (5=80-100%) | 5 (5=80-100%) | 5 (5=80-100%) | 4 (4=60-79%) | 4 (4=60-79%) | – |
| CSc1ccc(-c2c(C)c(C(=O)Nc3nnnn3C)cc3cccnc23)cc1 [Compound 1.030, 7-methyl-8-(4-methylsulfanylphenyl)-N-(1-methyltetrazol-5-yl)quinoline-6-carboxamide] | 5 (5=80-100%) | 5 (5=80-100%) | 5 (5=80-100%) | 5 (5=80-100%) | 5 (5=80-100%) | 5 (5=80-100%) | 5 (5=80-100%) | 5 (5=80-100%) | 5 (5=80-100%) | 4 (4=60-79%) | 4 (4=60-79%) | 4 (4=60-79%) | – |
| Cc1c(C(=O)Nc2nnnn2C)cc2cccnc2c1-c1ccc(S(C)(=O)=O)cc1 [Compound 1.031, 7-methyl-8-(4-methylsulfonylphenyl)-N-(1-methyltetrazol-5-yl)quinoline-6-carboxamide] | 5 (5=80-100%) | 5 (5=80-100%) | 5 (5=80-100%) | 5 (5=80-100%) | 5 (5=80-100%) | 5 (5=80-100%) | 5 (5=80-100%) | 5 (5=80-100%) | 5 (5=80-100%) | 5 (5=80-100%) | 5 (5=80-100%) | 5 (5=80-100%) | – |
| CSc1c(C(=O)Nc2nnnn2C)cc2cccnc2c1-c1ccccc1 [Compound 1.032, 7-methylsulfanyl-N-(1-methyltetrazol-5-yl)-8-phenyl-quinoline-6-carboxamide] | 5 (5=80-100%) | 5 (5=80-100%) | 5 (5=80-100%) | 5 (5=80-100%) | 5 (5=80-100%) | 5 (5=80-100%) | 5 (5=80-100%) | 5 (5=80-100%) | 5 (5=80-100%) | 5 (5=80-100%) | 5 (5=80-100%) | 5 (5=80-100%) | – |
| O=C(Nc1nnnn1-c1ccccc1)c1cc2cccnc2c(-c2ccccc2)c1C(F)(F)F [Compound 1.033] | 2 (2=20-39%) | 1 (1=0-19%) | 5 (5=80-100%) | 4 (4=60-79%) | 5 (5=80-100%) | 5 (5=80-100%) | 2 (2=20-39%) | 1 (1=0-19%) | 5 (5=80-100%) | 3 (3=40-59%) | 1 (1=0-19%) | 1 (1=0-19%) | – |
| COc1ccc(-c2c(C)c(C(=O)Nc3nnnn3C)cc3cccnc23)cc1 [Compound 1.034] | 5 (5=80-100%) | 5 (5=80-100%) | 5 (5=80-100%) | 5 (5=80-100%) | 5 (5=80-100%) | 5 (5=80-100%) | 5 (5=80-100%) | 5 (5=80-100%) | 5 (5=80-100%) | 5 (5=80-100%) | 4 (4=60-79%) | 5 (5=80-100%) | – |
| Cc1c(C(=O)Nc2nnnn2C)cc2cccnc2c1-c1ccc(F)cc1 [Compound 1.035] | 5 (5=80-100%) | 5 (5=80-100%) | 5 (5=80-100%) | 5 (5=80-100%) | 5 (5=80-100%) | 5 (5=80-100%) | 5 (5=80-100%) | 5 (5=80-100%) | 5 (5=80-100%) | 5 (5=80-100%) | 4 (4=60-79%) | 5 (5=80-100%) | – |
| Cc1c(C(=O)Nc2nnnn2C)cc2cccnc2c1-c1ccc(Cl)cc1 [Compound 1.036] | 5 (5=80-100%) | 5 (5=80-100%) | 5 (5=80-100%) | 5 (5=80-100%) | 5 (5=80-100%) | 5 (5=80-100%) | 5 (5=80-100%) | 5 (5=80-100%) | 5 (5=80-100%) | 5 (5=80-100%) | 4 (4=60-79%) | 4 (4=60-79%) | – |

From patent US9980486B2, “Herbicidal quinolines” (Syngenta Participations AG, priority 2014, dated 2018)
